Tests used:
[1] = target: T1, SSCrFCES (LPS-binding domain of C. rotundicauda Factor C, rFCES amino acids 29-330, numbered as in SEQ ID NO: 4) (Carcinoscorpius rotundicauda, UniProt Q26422); test: ELISA-based lipid A binding assay
T1 construct: rFCES (amino acids 29-330); made in house; host or cells: Drosophila S2 cells
T1 sequence (Q26422 29-330): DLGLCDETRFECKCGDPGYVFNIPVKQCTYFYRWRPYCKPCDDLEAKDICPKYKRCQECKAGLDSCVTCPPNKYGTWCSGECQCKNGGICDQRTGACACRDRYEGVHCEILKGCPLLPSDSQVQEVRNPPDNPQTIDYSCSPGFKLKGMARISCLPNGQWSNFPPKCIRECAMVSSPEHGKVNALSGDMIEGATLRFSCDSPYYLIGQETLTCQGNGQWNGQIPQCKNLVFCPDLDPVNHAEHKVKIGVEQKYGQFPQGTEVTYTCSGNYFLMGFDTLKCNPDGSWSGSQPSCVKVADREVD
Method: A Polysorp™ 96-well plate (Nunc) was first coated with 100 μl per well of various concentrations of lipid A diluted in pyrogen-free PBS. The plate was sealed and allowed to incubate overnight at room temperature. The wells were aspirated and washed 6 times with 200 μl per wash solution (PBS containing 0.01% Tween-20 and 0.01% thimerosal). Blocking of unoccupied sites was achieved using wash solution containing 0.2% BSA for 1 hour at room temperature. Subsequently, blocking solution was removed and the wells washed as described above. Varying concentrations of SSCrFCES were allowed to interact with bound lipid A at room temperature for 2 hours.
Bound SSCrFCES was detected by sequential incubation with rabbit anti-SSCrFCES antibody (1:1000 dilution) and goat anti-rabbit antibody conjugated with HRP (1:2000 dilution) (Dako). Incubation with each antibody was for 1 h at 37° C. with washing between incubations as described above. In the final step, 100 μl of peroxide substrate ABTS (Boehringer Mannheim) was added. Using a microtiter plate reader, the absorbance of the samples was determined at 405 nm with reference wavelength at 490 nm. The values were correlated to the amount of LPS bound and SSCrFCES present. Quantitation of SSCrFCES was achieved from a standard curve derived by immobilizing known amount of purified SSCrFCES onto a Maxisorp plate.

[2] = target: T2, rFCEE (truncated C. rotundicauda Factor C, CrFC21EE, amino acids 1-766, from P. pastoris) (Carcinoscorpius rotundicauda, UniProt Q26422); test: BIACORE X binding to immobilized lipid A; conditions: Biomax-50 enriched, normalized with rFCSN
T2 construct: Pichia pastoris, Biomax-50 enriched
T2 sequence (Q26422 1-766): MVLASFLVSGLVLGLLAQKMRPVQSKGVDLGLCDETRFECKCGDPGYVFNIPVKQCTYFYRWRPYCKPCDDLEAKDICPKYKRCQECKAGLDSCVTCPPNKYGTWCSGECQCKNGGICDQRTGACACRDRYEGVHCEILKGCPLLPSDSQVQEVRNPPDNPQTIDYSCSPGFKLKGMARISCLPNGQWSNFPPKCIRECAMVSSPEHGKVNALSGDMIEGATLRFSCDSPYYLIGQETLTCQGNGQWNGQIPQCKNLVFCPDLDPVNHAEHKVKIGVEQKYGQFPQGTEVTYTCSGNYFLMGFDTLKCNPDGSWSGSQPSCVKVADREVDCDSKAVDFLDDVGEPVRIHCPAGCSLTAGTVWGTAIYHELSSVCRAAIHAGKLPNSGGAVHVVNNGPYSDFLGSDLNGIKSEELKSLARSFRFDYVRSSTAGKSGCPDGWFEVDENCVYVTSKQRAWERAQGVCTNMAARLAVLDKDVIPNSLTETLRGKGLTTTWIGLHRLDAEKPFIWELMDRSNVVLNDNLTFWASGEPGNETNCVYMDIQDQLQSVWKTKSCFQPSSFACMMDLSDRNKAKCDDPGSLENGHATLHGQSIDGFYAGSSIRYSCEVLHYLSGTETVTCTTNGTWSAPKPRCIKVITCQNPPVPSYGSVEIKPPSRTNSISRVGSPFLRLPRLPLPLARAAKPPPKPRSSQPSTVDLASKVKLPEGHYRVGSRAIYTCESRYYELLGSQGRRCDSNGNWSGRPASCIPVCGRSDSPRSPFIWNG
Method: The binding interactions between rFC and immobilized lipid A were monitored using the BIACORE X™ biosensor (Pharmacia Biotech). The BIACORE X™ sensor chip features a flat hydrophobic surface that allows the immobilization of ligand molecules. Thirty microliters of lipid A at 100 μg/ml were immobilized on each sensor chip to form a ligand surface. Biomax™-50 enriched samples of rFC, rFCEE and rFCSN, each at 1 mg/ml were injected at 10 μl/min for 3 min over the ligand surface. After each injection of the recombinant protein samples, the lipid A ligand surface was regenerated using 0.1 M NaOH. The ligand-binding was measured in relative response units (RU) for each sample, and calculated from the difference in RU at the baseline, viz., before injection of sample, and final experimental reading taken after sample injection and a 2-min wash. The percentage binding was thus determined.

NH-LBP (aa 1-197) = conditions: Han et al., 1994; ligand cell empty; read-out: Equilibrium constant; cited from earlier work
[3] = target: T1, SSCrFCES (LPS-binding domain of C. rotundicauda Factor C, rFCES amino acids 29-330, numbered as in SEQ ID NO: 4); conditions: rFCES produced in Drosophila cells, 8 ng/μl; reference 77; cited from earlier work

lipid A
Hill's coefficient [1]: 2.2
molar ratio of bound SSCrFCES to immobilized lipid A at saturation [1]: 0.37
stoichiometry, lipid A molecules per SSCrFCES ([1]; at saturation): ~3
net response, lipid A bound [2]: 15%
Kd (NH-LBP (aa 1-197)): 51 nM
saturation of immobilized lipid A [3]: 92%
